Eight compounds from ChEMBL document CHEMBL4616615, “Screening for tyrosinase inhibitors from actinomycetes; identification of trichostatin derivatives from Streptomyces sp. CA-129531 and scale up production in bioreactor” (Bioorg Med Chem Lett, 2020) can be followed below.

For assay [1], the target named is T1, Mushroom tyrosinase (Agaricus bisporus, UniProt O42713+Q00024+C7FF04+C7FF05). Kind of assay: Inhibition of mushroom tyrosinase using L-DOPA as substrate.
A further assay has as its system A2058. Kind of assay: Cytotoxicity against human A2058 cells assessed as reduction in cell viability. In kind it is cell-based.
A further assay has as its system HepG2. Kind of assay: cells. Particulars: Homo sapiens.
The next assay deals with A549. Kind of assay: cells. Particulars: Homo sapiens.
A further assay has as its system MCF7. In words: cells. Conditions: Homo sapiens.
A further assay deals with MIA PaCa-2. Kind of assay: cells. Particulars: Homo sapiens.
Assay [2] addresses T1, Mushroom tyrosinase. Kind of assay: Mixed-type of inhibition of mushroom tyrosinase using varying level of L-DOPA as substrate by Dixon plot analysis.

Bounds are passed on as bounds.

Description for A549: Cytotoxicity against human A549 cells assessed as reduction in cell viability
Description for HepG2: Cytotoxicity against human HepG2 cells assessed as reduction in cell viability
Description for MIA PaCa-2: Cytotoxicity against human MIAPaCa2 cells assessed as reduction in cell viability

On to `CC(/C=C/C(N)=O)=C\[C@@H](C)C(=O)c1ccc(N(C)C)cc1`, for which the IC50 (commonly the concentration that inhibits the measured activity by half) was 19.18 µM against Mushroom tyrosinase [1]; 0.64 µM in the assay with A2058; 3.19 µM in the assay on HepG2; 8.3 µM in the assay on A549; 2.74 µM in the assay with MCF7; 9.46 µM in the assay on MIA PaCa-2.

Consider `CNC(=O)/C=C/C(C)=C/[C@@H](C)C(=O)c1ccc(N(C)C)cc1`, for which the IC50 is 161.18 µM at Mushroom tyrosinase [1]; greater than 50 µM in the assay with A2058; 13.1 µM with HepG2; greater than 50 µM in the assay with A549; 18.4 µM in the assay on MCF7; 36.7 µM with MIA PaCa-2.

Regarding `CC(/C=C/C(=O)NO[C@@H]1O[C@H](CO)[C@@H](O)[C@H](O)[C@H]1O)=C\[C@@H](C)C(=O)c1ccc(N(C)C)cc1`, the IC50 against Mushroom tyrosinase [1] came to 174.33 µM; in the assay on A2058 it was 37.3 µM; in the assay on HepG2, 17.8 µM; with A549, 25 µM; with MCF7, 18.9 µM; in the assay with MIA PaCa-2, 37.9 µM.

As for `CC(/C=C/C(=O)O)=C\[C@@](C)(O)C(=O)c1ccc(N(C)C)cc1`, the IC50 with A2058, in the assay on HepG2, with A549, in the assay on MCF7 and in the assay on MIA PaCa-2 was greater than 50 µM throughout.

Turning to `CC(/C=C/C(=O)O)=C\[C@H](C)C(=O)c1ccc(N(C)C)cc1`, the IC50 in the assay on A2058, in the assay on HepG2, with A549, with MCF7 and in the assay on MIA PaCa-2 was greater than 50 µM in each case.

On to `CC(/C=C/C(=O)N[C@@H](CCC(N)=O)C(=O)O)=C\[C@@H](C)C(=O)c1ccc(N(C)C)cc1`, for which the IC50 in the assay with A2058, in the assay with HepG2, with A549, with MCF7 and with MIA PaCa-2 was greater than 50 µM each time.

Turning to `COc1cccc2c1C(=O)c1c(O)c3c(c(O)c1C2=O)C[C@@](O)(C(=O)CO)C[C@@H]3O[C@H]1C[C@H](N)[C@H](O)[C@H](C)O1` [DOXORUBICIN], the IC50 with A2058 was less than 0.11 µM; in the assay with HepG2, less than 0.11 µM; in the assay on A549 it was 3.76 µM; in the assay with MIA PaCa-2, 1.02 µM.

For `CC(/C=C/C(=O)NO)=C\[C@@H](C)C(=O)c1ccc(N(C)C)cc1` [TRICHOSTATIN], the IC50 came to 2.18 µM on Mushroom tyrosinase [1]; 0.43 µM in the assay on A2058; 0.38 µM in the assay with HepG2; 1.31 µM with A549; 0.3 µM in the assay on MCF7; 0.9 µM in the assay with MIA PaCa-2. Moreover, the Ki (in general, the equilibrium dissociation constant of an inhibitor or competing ligand from its target) on Mushroom tyrosinase [2] was 6.1 µM.
